Experimental data published in patent US7691966B2, “Method for quantitative analysis for prolyl hydroxylase activity using fluorescence polarization” (Korea Institute of Science and Technology, priority 2005, dated 2010).

Columns and labels:
VBC protein [1] = target: T1, VBC protein (Homo sapiens, UniProt P40337); assay: Fluorescence polarization competition assay for inhibitors of F-HyP564 peptide-VBC protein binding; details: 100 nM F-HyP564, 500 nM VBC, competitor 0 to 500 μM
T1 construct: made in house; host or cells: E. coli BL21 (DE3)
Procedure: (§1) Fluorescence polarization changes were measured during the formation of protein-ligand complex of VBC protein and the above peptides prepared in Example 1, to investigate binding capacity and characteristics thereof. Fluorescence polarization was measured by using fluorometer (Perkin-Elmer), and the size of slit was 5 nm and integration time was 5 seconds. A buffer solution containing 50 mM Tris and 120 mM NaCl, pH 8.0, was supplemented with NP-40 (nonidet P40) by 0.5%, for being utilized for the experiments of binding and interaction.
Fluorescence polarization of the reaction solution was measured.
After mixing, fluorescence polarization changes were measured.

VBC protein [2] = target: T1, VBC protein; assay: Fluorescence polarization binding of fluorescent labeled HIF-1 peptide to VBC protein
Source text: Human von Hippel-Lindau gene fragment (corresponding to 54˜213 a.a. region of the amino acid sequence represented by GenBank Accession No: NM000551) and human Elongin B fragment (corresponding to 1˜118 a.a. region of the amino acid sequence represented by GenBank Accession No: NM007108) were inserted into a modified pGEX-4T-1, resulting in plasmid pGEX4T-VHL-EB. Likewise, human Elongin C fragment (corresponding to 17˜112 a.a. region of the amino acid sequence represented by GenBank Accession No: NM005648) was inserted into pET29b vector, resulting in plasmid PDEV-EC (Novagen). The plasmids were co-expressed massively in E. coli BL21 (DE3) (Novagen).
as §1
After mixing, fluorescence polarization was measured.

Compound	fluorescence polarization change on addition of competitor peptide (VBC protein [1])	further results
CC[C@H](C)[C@H](NC(=O)[C@H](Cc1ccc(O)cc1)NC(=O)[C@@H]1C[C@@H](O)CN1C(=O)[C@H](C)NC(=O)[C@H](CC(C)C)NC(=O)[C@H](C)N)C(=O)N1CCC[C@H]1C(=O)N[C@@H](C)C(=O)O [Hy-N fragment, ALAHyPYIPA]	remarkably decreased	
CC[C@H](C)[C@H](NC(=O)[C@H](Cc1ccc(O)cc1)NC(=O)[C@@H]1C[C@@H](O)CN1C(=O)[C@H](C)NC(=O)[C@H](CC(C)C)NC(=O)[C@H](C)NC(=O)[C@H](CCC(=O)O)NC(=O)[C@H](CC(C)C)NC(=O)[C@H](CC(=O)O)NC(=O)[C@H](CC(C)C)NC(=O)[C@H](CC(=O)O)NC(=O)CCCCCNC(=S)Nc1ccc2c(c1)C(=O)OC21c2ccc(O)cc2Oc2cc(O)ccc21)C(=O)N1CCC[C@H]1C(=O)N[C@@H](C)C(=O)N[C@@H](CC(=O)O)C(=O)N[C@@H](CC(=O)O)C(=O)N[C@@H](CC(=O)O)C(=O)N[C@@H](Cc1ccccc1)C(=O)N[C@@H](CCC(N)=O)C(=O)N[C@@H](CC(C)C)C(=O)N[C@@H](CCCNC(=N)N)C(=O)O [F-HyP564]		fluorescence polarization of reactant with VBC protein compared with probe itself (VBC protein [2]; reacted with VBC protein at 25° C.): remarkably increased
F-P564: FITC-aminocaproic acid-labeled HIF-1α 556-575 peptide without hydroxyproline, SEQ ID NO:1		fluorescence polarization value (VBC protein [2]; 100 nM peptide, 800 nM VBC protein, 25° C.): 0.066
DDDFQLR [C]	only a slight decrease	
ALAPYIPA [N]	only a slight decrease	
